Results reported in patent publication US8895745B2, “Bicyclic heterocyclic compounds as FGFR inhibitors” (Astex Therapeutics Limited, priority 2006, dated 2014).
Where a name gives a salt, the structure may show the parent alone. Read-outs that look alike come from different tables or passages of the source.

Test system: LP-1 cell line
Test: Cell-based pERK ELISA method, LP-1 cells
Conditions: Homo sapiens
[1] = LP-1, read-out: IC50 less than 1 μM or at least 50% inhibition at a concentration of 1 μM, LP-1 pERK ELISA
[2] = LP-1, read-out: LP-1 pERK ELISA (μM)

Protocol: LP-1 or JIM-1 multiple myeloma cells were seeded in 96 well plates at 1×10^6 cells/ml in 200 ul per well in serum free media. […] Cells were incubated for 16 h at 37° C. prior to the addition of a test compound for 30 minutes. Test compounds were administered at a 0.1% final DMSO concentration. […] ELISA plates and standards were prepared according o the standard DuoSet protocols and the relative amounts of pERK to total ERK in each sample calculated according to the standard curve.
In particular, compounds of the invention were tested against the LP-1 cell line (DSMZ no.: ACC 41) derived from human multiple myeloma.

SMILES | IC50 [1] | IC50 [2]
O=C(NCC(F)(F)F)Nc1cccc(-c2cnc3cc(-c4cccc(NC5CCOCC5)c4)ccn23)c1 [Example 244, 1-(3-{7-[3-(Tetrahydro-pyran-4-ylamino)-phenyl]-imidazo[1,2-a]pyridin-3-yl}-phenyl)-3-(2,2,2-trifluoro-ethyl)-urea] | < 1 µM | –
CN1CCN(c2ccc(-c3ccn4c(-c5cccc(NC(=O)NCC(F)(F)F)c5)cnc4c3)cc2)CC1 [Example 245, 1-(3-{7-[4-(4-Methyl-piperazin-1-yl)-phenyl]-imidazo[1,2-a]pyridin-3-yl}-phenyl)-3-(2,2,2-trifluoro-ethyl)-urea Acetic acid] | < 1 µM | –
CC(NC(=O)Nc1cccc(-c2cnc3cc(-c4ccc(F)cc4)ccn23)c1)C(F)(F)F (centres unmarked) [Example 246, 1-{3-[7-(4-Fluoro-phenyl)-imidazo[1,2-a]pyridin-3-yl]-phenyl}-3-(2,2,2-trifluoro-1-methyl-ethyl)-urea] | < 1 µM | –
NS(=O)(=O)c1cccc(-c2ccn3c(-c4cccc(NC(=O)NCC(F)(F)F)c4)cnc3c2)c1 [Example 249, 3-(3-{3-[3-(2,2,2-Trifluoro-ethyl)-ureido]-phenyl}-imidazo[1,2-a]pyridin-7-yl)-benzene-sulfonamide formate] | < 1 µM | –
O=C(NCC(F)(F)F)Nc1cccc(-c2cnc3cc(-c4cccc(C(=O)N5CCNCC5)c4)ccn23)c1 [Example 250, 1-(3-{7-[3-(Piperazine-1-carbonyl)-phenyl]-imidazo[1,2-a]pyridin-3-yl}-phenyl)-3-(2,2,2-trifluoro-ethyl)-urea hydrochloride] | < 1 µM | –
CS(=O)(=O)c1cccc(-c2ccn3c(-c4cccc(NC(=O)NCC(F)(F)F)c4)cnc3c2)c1 [Example 251, 1-{3-[7-(3-Methane-sulfonyl-phenyl)-imidazo[1,2-a]pyridin-3-yl]-phenyl}-3-(2,2,2-trifluoro-ethyl)-urea formate] | < 1 µM | –
O=C(NCC(F)(F)F)Nc1ccc(F)c(-c2cnc3cc(-c4ccc(F)cc4)ccn23)c1 [Example 253, 1-{4-Fluoro-3-[7-(4-fluoro-phenyl)-imidazo[1,2-a]pyridin-3-yl]-phenyl}-3-(2,2,2-trifluoro-ethyl)-urea] | < 1 µM | –
O=C(NCC(F)(F)F)Nc1cccc(-c2cnc3cc(-c4cc(F)cc(F)c4)ccn23)c1 [Example 254, 1-{3-[7-(3,5-Difluoro-phenyl)-imidazo[1,2-a]pyridin-3-yl]-phenyl}-3-(2,2,2-trifluoro-ethyl)-urea] | < 1 µM | –
O=C(NCC(F)(F)F)Nc1cc(CO)cc(-c2cnc3cc(-c4ccc(F)cc4)ccn23)c1 [Example 258, 1-{3-[7-(4-Fluoro-phenyl)-imidazo[1,2-a]pyridin-3-yl]-5-hydroxymethyl-phenyl}-3-(2,2,2-trifluoro-ethyl)-urea] | < 1 µM | –
CCc1nnc(-c2ccn3c(-c4cccc(NC(=O)NCC(F)(F)F)c4)cnc3c2)s1 [Example 260, 1-{3-[7-(5-Ethyl-[1,3,4]thiadiazol-2-yl)-imidazo[1,2-a]pyridin-3-yl]-phenyl}-3-(2,2,2-trifluoro-ethyl)-urea] | < 1 µM | –
CCNC(=O)c1cccc(-c2ccn3c(-c4cccc(NC(=O)NCC(F)(F)F)c4)cnc3c2)c1 [Example 261, N-Ethyl-3-(3-{3-[3-(2,2,2-trifluoro-ethyl)-ureido]-phenyl}-imidazo[1,2-a]pyridin-7-yl)-benzamide Formate] | < 1 µM | –
CN(C)S(=O)(=O)n1cc(-c2ccn3c(-c4cccc(NC(=O)NCC(F)(F)F)c4)cnc3c2)cn1 [Example 262, 4-(3-{3-[3-(2,2,2-Trifluoro-ethyl)-ureido]-phenyl}-imidazo[1,2-a]pyridin-7-yl)-pyrazole-1-sulfonic acid dimethylamide] | < 1 µM | –
COCCNC(=O)c1cccc(-c2ccn3c(-c4cccc(NC(=O)NCC(F)(F)F)c4)cnc3c2)c1 [Example 263, N-(2-Methoxy-ethyl)-3-(3-{3-[3-(2,2,2-trifluoro-ethyl)-ureido]-phenyl}-imidazo[1,2-a]pyridin-7-yl)-benzamide] | < 1 µM | –
O=C(NCC(F)(F)F)Nc1cccc(-c2cnc3cc(-c4cccc(C(=O)N5CCC5)c4)ccn23)c1 [Example 264, 1-(3-{7-[3- (Azetidine 1-carbonyl)-phenyl]-imidazo[1,2-a]pyridin-3-yl}-phenyl)-3-(2,2,2-trifluoro-ethyl)-urea] | < 1 µM | –
O=C(NCC(F)(F)F)Nc1cccc(-c2cnc3cc(-c4ccc(F)cc4F)ccn23)c1 [Example 269, 1-{3-[7-(2,4-Difluoro-phenyl)-imidazo[1,2-a]pyridin-3-yl]-phenyl}-3-(2,2,2-trifluoro-ethyl)-urea] | < 1 µM | –
Cc1ccc(-c2ccn3c(-c4cccc(NC(=O)NCC(F)(F)F)c4)cnc3c2)s1 [Example 270, 1-{3-[7-(5-Methyl-thiophen-2-yl)-imidazo[1,2-a]pyridin-3-yl]-phenyl}-3-(2,2,2-trifluoro-ethyl)-urea formate] | < 1 µM | –
COc1cccc(-c2ccn3c(-c4cccc(NC(=O)NCC(F)(F)F)c4)cnc3c2)c1 [Example 279, 1-{3-[7-(3-Methoxy-phenyl)-imidazo[1,2-a]pyridin-3-yl]-phenyl}-3-(2,2,2-trifluoro-ethyl)-urea] | < 1 µM | –
O=C(NCC(F)(F)F)Nc1cccc(-c2cnc3cc(-c4ccc(Cl)c(F)c4)ccn23)c1 [Example 280, 1-{3-[7-(4-Chloro-3-fluoro-phenyl)-imidazo[1,2-a]pyridin-3-yl]-phenyl}-3-(2,2,2-trifluoro-ethyl)-urea] | < 1 µM | –
O=C(NCC(F)(F)F)Nc1cccc(-c2cnc3cc(-c4cccc(C(=O)N5CCCNCC5)c4)ccn23)c1 [Example 283, 1-(3-{7-[3-([1,4] Diazepane-1-carbonyl)-phenyl]-imidazo[1,2-a]pyridin-3-yl}-phenyl)-3-(2,2,2-trifluoro-ethyl)-urea Hydrochloride] | < 1 µM | –
O=C(NCC(F)(F)F)Nc1cccc(-c2cnc3cc(-c4ccc(F)c(Cl)c4)ccn23)c1 [Example 284, 1-{3-[7-(3-Chloro-4-fluoro-phenyl)-imidazo[1,2-a]pyridin-3-yl]-phenyl}-3-(2,2,2-trifluoro-ethyl)-urea] | < 1 µM | –
Cc1nnc(-c2ccn3c(-c4cccc(NC(=O)NCC(F)(F)F)c4)cnc3c2)s1 [Example 310, 1-{3-[7-(5-Methyl-[1,3,4]-thiadiazol-2-yl)-imidazo[1,2-a]pyridin-3-yl]-phenyl}-3-(2,2,2-trifluoro-ethyl)-urea] | – | 0.0042 µM
Cc1nnc(-c2ccn3c(-c4cccc(NC(=O)NCC(F)(F)F)c4)cnc3c2)o1 [Example 329, 1-{3-[7-(5-Methyl-[1,3,4]oxadiazol-2-yl)-imidazo[1,2-a]pyridin-3-yl]-phenyl}-3-(2,2,2-trifluoro-ethyl)-urea] | – | 0.143 µM
Cn1c(-c2ccn3c(-c4cccc(NC(=O)NCC(F)(F)F)c4)cnc3c2)n[nH]c1=S [Example 332, 1-{3-[7-(4-Methyl-5-thioxo-4,5-dihydro-1H-[1,2,4]triazol-3-yl)-imidazo[1,2-a]pyridin-3-yl]-phenyl}-3-(2,2,2-trifluoro-ethyl)-urea] | < 1 µM | –
O=C(NCC(F)(F)F)Nc1cccc(-c2cnc3cc(C4CC4)ccn23)c1 [Example 334, 1-[3-(7-Cyclopropyl-imidazo[1,2-a]pyridin-3-yl)-phenyl]-3-(2,2,2-trifluoro-ethyl)-urea Formate] | < 1 µM | –

Next, values leading:

IC50 [1] | IC50 [2] | SMILES
< 1 µM | – | CNC(=O)c1cccc(-c2ccn3c(-c4cccc(NC(=O)NCC(F)(F)F)c4)cnc3c2)c1 [Example 247, N-Methyl-3-(3-{3-[3-(2,2,2-trifluoro-ethyl)-ureido]-phenyl}-imidazo[1,2-a]pyridin-7-yl)-benzemide Formate]
< 1 µM | – | O=C(NCC(F)(F)F)Nc1ccc(F)c(-c2cnc3cc(Cl)ccn23)c1 [Example 252, 1-[3-(7-Chloro-imidazo[1,2-a]pyridin-3-yl)-4-fluoro-phenyl]-3-(2,2,2-trifluoro-ethyl)-urea]
< 1 µM | – | CCCn1cc(-c2ccn3c(-c4cccc(NC(=O)NCC(F)(F)F)c4)cnc3c2)cn1 [Example 256, 1-{3-[7-(1-Propyl-1H-pyrazol-4-yl)-imidazo[1,2-a]pyridin-3-yl]-phenyl}-3-(2,2,2-trifluoro-ethyl)-urea formate]
< 1 µM | – | CCNC(=O)Nc1cc(-c2cnc3cc(-c4ccc(F)cc4)ccn23)ccc1F [Example 266, 1-Ethyl-3-{2-fluoro-5-[7-(4-fluoro-phenyl)-imidazo[1,2-a]pyridin-3-yl]-phenyl}-urea]
< 1 µM | – | CC(C)NC(=O)c1cccc(-c2ccn3c(-c4cccc(NC(=O)NCC(F)(F)F)c4)cnc3c2)c1 [Example 267, N-Isopropyl-3-(3-{3-[3-(2,2,2-trifluoro-ethyl)-ureido]-phenyl}-imidazo[1,2-a]pyridin-7-yl)-benzamide]
< 1 µM | – | COc1ccc(-c2ccn3c(-c4cccc(NC(=O)NCC(F)(F)F)c4)cnc3c2)cc1 [Example 271, 1-{3-[7-(4-Methoxy-phenyl)-imidazo[1,2-a]pyridin-3-yl]-phenyl}-3-(2,2,2-trifluoro-ethyl)-urea]
< 1 µM | – | O=C(NCC(F)(F)F)Nc1cccc(-c2cnc3cc(-c4ccc(Cl)cc4)ccn23)c1 [Example 273, 1-{3-[7-(4-Chloro-phenyl)-imidazo[1,2-a]pyridin-3-yl]-phenyl}-3-(2,2,2-trifluoro-ethyl)-urea]
< 1 µM | – | O=C(NCC(F)(F)F)Nc1cccc(-c2cnc3cc(-c4cccc(Cl)c4)ccn23)c1 [Example 278]
< 1 µM | – | O=C(NCC(F)(F)F)Nc1cccc(-c2cnc3cc(-c4ccc(C5CNCCN5)cc4)ccn23)c1 (centres unmarked) [Example 296, 1-{3-[7-(4-Piperazin-2-yl-phenyl)-imidazo[1,2-a]pyridin-3-yl]-phenyl}-3-(2,2,2-trifluoro-ethyl)-urea hydrochloride]
< 1 µM | – | O=C(NCC(F)(F)F)Nc1cccc(-c2cnc3cc(-c4nnco4)ccn23)c1 [Example 330, 1-[3-(7-[1,3,4]Oxadiazol-2-yl-imidazo[1,2-a]pyridin-3-yl)-phenyl]-3-(2,2,2-trifluoro-ethyl)-urea]
< 1 µM | – | COc1ccn2c(-c3cccc(NC(=O)NCC(F)(F)F)c3)cnc2c1 [Example 336, 1-[3-(7-Methoxy-imidazo[1,2-a]pyridin-3-yl)-phenyl]-3-(2,2,2-trifluoro-ethyl)-urea Formate]
